Data from article PMC7997032, “Organic synthesis and anti-influenza A virus activity of cyclobakuchiols A, B, C, and D” (PLoS ONE, 2021).
Where “and” joins values, the source holds several entries; their conditions need not be identical. Equal values may be shown once.

Experiments:
A/PR/8/34 virus [1] = experiment: Influenza A viral growth assay (viral titer of culture media); type: cell-based, influenza A H1N1 virus; design: viral titer of culture media, individual replicate / viral titer of culture media, ave: unit not given here; conditions: A/PR/8/34 (PR8), 12.5uM, average of #1-3 exp (n=9)
A/WSN/33 virus [2] = experiment: as above; type: cell-based, influenza A H1N1 virus; conditions: A/WSN/33 (WSN), 12.5uM, average of #1-3 exp (n=9)
A/PR/8/34 virus [3] = experiment: RT-qPCR of viral mRNAs (NP, NS1, PA, PB1, PB2, M2) in infected MDCK cells; type: cell-based, influenza A H1N1 virus
A/PR/8/34 virus [4] = type: cell-based; conditions: 12.5 μM, 24h WB
[5] = test system: canine interferon-β (Ifn-β); experiment: RT-qPCR of Ifn-β mRNA in MDCK cells with or without A/PR/8/34 virus; type: cell-based; conditions: 12.5uM, relative to virus - DMSO; for MDCK IFN-b mRNA, ave: ave of #1-3 exp; for MDCK IFN-b mRNA, individual replicates: replicates 1-3 of #1, #2, #3 exp, listed as Cyclobakuchiol B
[6] = test system: NAD(P)H quinone oxidoreductase 1 (Nqo1); experiment: RT-qPCR of Nqo1 mRNA in MDCK cells with or without A/PR/8/34 virus; type: cell-based, canine; conditions: for NQO1 Canis lupus mRNA, ave / NQO1 Canis lupus mRNA, individual replicates: 12.5uM, MDCK, relative to virus - DMSO; for NQO1 Canis lupus mRNA, ave: ave of #1-3 exp; for NQO1 Canis lupus mRNA, individual replicates: replicates 1-3 of #1, #2, #3 exp, listed as Cyclobakuchiol B
Nrf2 = Nrf2 reporter assay (dual luciferase system) in MDCK cells; type: cell-based, canine
Protocol: An Nrf2 reporter assay based on the dual luciferase system was performed as previously described. The plasmid pNQO1-ARE (antioxidant response element)-Fluc, provided by Yamamoto M., expressed a Firefly luciferase gene driven by Nrf2 activation, while the plasmid pRL-TK-Rluc vector (Promega, CA, USA) expressed a Renilla luciferase gene driven by the herpes simplex viral thymidine kinase promoter as an internal control. MDCK cells were seeded in a 24-well plate at 1 × 10^5 cells/well and transfected with pNQO1-ARE-luc (0.25 μg) and pRL-TK-Rluc (0.25 μg). At 24 h post-transfection, the cells were treated with 12.5 μM cyclobakuchiols A–D in the infection medium at 37°C under 5% CO2. DMSO (0.125%) and 12.5 μM 1 were used as negative and positive controls, respectively. Total RNA was extracted from the MDCK cell lysates after 24 h of incubation. The levels of Firefly and Renilla luciferase mRNAs were analyzed by RT-qPCR and normalized to that of β-actin mRNA.

A/PR/8/34 virus [7] = experiment: Immunofluorescence staining of viral NP in influenza A virus-infected MDCK cells; conditions: for NP/DAPI (%) ave: average of 9 wells
Protocol: MDCK cells were seeded on a 96-well plate at 1 × 10^4 cells/well. […] Each mixture was added to the cells at 37°C in the presence of 5% CO2. […] After influenza A viral infection for 24 h, the cells were fixed with 4% paraformaldehyde in phosphate-buffered saline (PBS) for 30 min at 4°C and subsequently permeabilized by the addition of 0.3% Triton X-100 for 20 min at 25°C. A mouse primary antibody was used to detect the NP of A/PR/8/34 or A/WSN/33 viruses (FluA-NP 4F1; SouthernBiotech, AL, USA). Alexa Fluor488-conjugated goat anti-mouse IgG (H + L) antibody (Thermo Fisher Scientific) was used as the secondary antibody. Cell nuclei were then stained using diamidino-2-phenylindole (DAPI) (Thermo Fisher Scientific). Wells were photographed using a fluorescence microscope (BIOREVO BZ-X700; Keyence, Osaka, Japan). The proportion of influenza A NP-positive cells per DAPI-positive cells was calculated based on measurements recorded using BZ-X Analyzer software (Keyence).

A/WSN/33 virus [8] = experiment: as above; conditions: WSN
[9] = MDCK cells, PR8 virus, relative to DMSO (about 1), ave of #1-3 exp (9 values)
[10] = MDCK cells, PR8 virus, relative to DMSO, replicates 1-3 of #1, #2, #3 exp, listed as Cyclobakuchiol B

SMILES: C=C[C@]1(C)CCC(C(=C)C)C(c2ccc(O)cc2)C1 (stereo in doubt) [cyclobakuchiol B]
- viral titer of culture media, ave (A/PR/8/34 virus [1]; 12h): 24444.4
- viral titer of culture media, ave (A/PR/8/34 virus [1]; 48h): 41111.1
- viral titer of culture media, ave (A/PR/8/34 virus [1]; 72h): 58888.9
- viral titer of culture media, ave (A/WSN/33 virus [2]; 12h): 12633.3
- viral titer of culture media, ave (A/WSN/33 virus [2]; 24h): 25455556
- viral titer of culture media, ave (A/WSN/33 virus [2]; 48h): 275666667
- viral titer of culture media, ave (A/WSN/33 virus [2]; 72h): 208055556
- PR8 NP gene expression qPCR, ave (A/PR/8/34 virus [3]; MDCK PR8, NP mRNA, relative (DMSO about 1), average of #1-3 exp (n=9)): 0.03219
- PR8 NP gene expression qPCR, individual replicate (A/PR/8/34 virus [3]; MDCK PR8, NP mRNA, relative (DMSO about 1), replicates of #1-3 exp, listed as Cyclobakuchiol B): 0.01121 and 0.02587 and 0.02406 and 0.03207 and 0.05973 and 0.04959 and 0.06567 and 0.01197 and 0.009584
- PR8 NS1 gene expression qPCR, ave (A/PR/8/34 virus [3]; MDCK PR8, NS1 mRNA, relative (DMSO about 1), average of #1-3 exp (n=9)): 0.02013
- PR8 NS1 gene expression qPCR, individual replicate (A/PR/8/34 virus [3]; MDCK PR8, NS1 mRNA, relative (DMSO about 1), replicates of #1-3 exp, listed as Cyclobakuchiol B): 0.008731 and 0.02017 and 0.01871 and 0.02102 and 0.03896 and 0.02064 and 0.02879 and 0.01388 and 0.01026
- PR8 PA gene expression qPCR, ave (A/PR/8/34 virus [3]; MDCK PR8, PA mRNA, relative (DMSO about 1), average of #1-3 exp (n=9)): 0.02293
- PR8 PA gene expression qPCR, individual replicate (A/PR/8/34 virus [3]; MDCK PR8, PA mRNA, relative (DMSO about 1), replicates of #1-3 exp, listed as Cyclobakuchiol B): 0.01293 and 0.01727 and 0.01489 and 0.01881 and 0.04016 and 0.03375 and 0.04497 and 0.01194 and 0.01167
- PR8 M2 gene expression qPCR, ave (A/PR/8/34 virus [3]; [9]): 0.0246
- PR8 PB1 gene expression qPCR, ave (A/PR/8/34 virus [3]; [9]): 0.01874
- PR8 PB2 gene expression qPCR, ave (A/PR/8/34 virus [3]; [9]): 0.02588
- PR8 M2 gene expression qPCR, individual replicates (A/PR/8/34 virus [3]; [10]): 0.01123 and 0.02732 and 0.01583 and 0.02218 and 0.04353 and 0.0372 and 0.04279 and 0.01139 and 0.009915
- PR8 PB1 gene expression qPCR, individual replicates (A/PR/8/34 virus [3]; [10]): 0.01046 and 0.01271 and 0.006702 and 0.01001 and 0.03897 and 0.03125 and 0.03696 and 0.01163 and 0.009984
- PR8 PB2 gene expression qPCR, individual replicates (A/PR/8/34 virus [3]; [10]): 0.01333 and 0.02659 and 0.01745 and 0.02138 and 0.03944 and 0.03441 and 0.05711 and 0.01315 and 0.01011
- NP/b-actin ave (A/PR/8/34 virus [4]; average of 3 experiments): 0.58
- NS1/b-actin ave (A/PR/8/34 virus [4]; average of 3 experiments): 0.5288
- NP mean (western blot signal intensity, ImageJ) (A/PR/8/34 virus [4]; single experiment): 62.433 and 67.763 and 96.513
- NP/b-actin (A/PR/8/34 virus [4]; single experiment): 0.7275 and 0.4304 and 0.582
- NS1/b-actin (A/PR/8/34 virus [4]; single experiment): 0.4321 and 0.5028 and 0.6516
- NS1 mean (western blot signal intensity, ImageJ) (A/PR/8/34 virus [4]; single experiment): 72.927 and 75.866 and 57.321
- MDCK IFN-b mRNA, ave ([5]; virus +): 5.577
- MDCK IFN-b mRNA, individual replicates ([5]; virus +): 1.734 and 10.09 and 8.268 and 12.9454 and 4.2 and 4.194 and 4.358 and 1.919 and 2.486
- MDCK IFN-b mRNA, ave ([5]; virus -): 2.313
- MDCK IFN-b mRNA, individual replicates ([5]; virus -): 0.5929 and 0.6599 and 7.314 and 8.038 and 1.086 and 0.609 and 1.136 and 0.5738 and 0.8068
- relative mRNA level of Nqo1 compared with 5-treated cells [6]: significantly higher
- NQO1 Canis lupus mRNA, ave ([6]; virus + (PR8)): 1.527
- NQO1 Canis lupus mRNA, individual replicates ([6]; virus + (PR8)): 1.793 and 1.729 and 1.393 and 1.933 and 1.0008 and 1.009 and 1.147 and 1.683 and 2.053
- NQO1 Canis lupus mRNA, ave ([6]; virus -): 1.333
- NQO1 Canis lupus mRNA, individual replicates ([6]; virus -): 1.179 and 1.391 and 1.475 and 1.419 and 1.382 and 1.189 and 1.372 and 1.36 and 1.235
- relative mRNA level of Nqo1 compared with DMSO ([6]; without A/PR/8/34 virus, 12.5 μM, 24 h): significantly upregulated
- Nrf2 activation (reporter assay) in contrast to DMSO (Nrf2; 12.5 μM, 24 h, MDCK cells): induced
- pNQO1-ARE-Luc NRF2 reporter assay, ave (Nrf2; 12.5uM, relative to DMSO trans+, ave of #1-3 exp): 1.319
- pNQO1-ARE-Luc NRF2 reporter assay, individual replicates (Nrf2; 12.5uM, relative to DMSO trans+, two values each of #1, #2, #3 exp, listed as Cyclobakuchiol B): 1.305 and 0.9752 and 1.512 and 1.4747 and 1.32 and 1.325
- percentage of influenza A NP-positive cells relative to DMSO (A/PR/8/34 virus [7]; A/PR/8/34, 3.1 μM, 24 h, Fig 4B): significantly reduced
- NP/DAPI (%) ave (A/PR/8/34 virus [7]; A/PR/8/34, 3.13 uM): 5.089%
- NP/DAPI (%) ave (A/PR/8/34 virus [7]; A/PR/8/34, 6.25 uM): 1.925%
- NP/DAPI (%) ave (A/PR/8/34 virus [7]; A/PR/8/34, 12.5 uM): 1.075%
- NP/DAPI (%) ave (A/PR/8/34 virus [7]; A/PR/8/34, 25 uM): 0.927%
- IC50 (A/PR/8/34 virus [7]; Influenza A virus, PR/8, MDCK, read-out: half maximal (50%) inhibitory concentration (IC50)): 2.4 ± 0.6 µM
- NP/DAPI (%) ave (A/WSN/33 virus [8]; 3.13uM, ave of 9 values (3 exp)): 30.5534%
- NP/DAPI (%) ave (A/WSN/33 virus [8]; 6.25uM, ave of 9 values (3 exp)): 28.157%
- NP/DAPI (%) ave (A/WSN/33 virus [8]; 12.5uM, ave of 9 values (3 exp)): 30.5618%
- NP/DAPI (%) ave (A/WSN/33 virus [8]; 25uM, ave of 9 values (3 exp)): 32.0683%
- NP/DAPI (%) ave (A/WSN/33 virus [8]; ave summary, 3.13%): 30.5534%
- NP/DAPI (%) ave (A/WSN/33 virus [8]; ave summary, 6.25%): 28.157%
- NP/DAPI (%) ave (A/WSN/33 virus [8]; ave summary, 12.50%): 30.5618%
- NP/DAPI (%) ave (A/WSN/33 virus [8]; ave summary, 25%): 32.0683%
